Tests used:
[1] = tested on: SEQ ID NO:67; assay: Microarray analysis of SEQ ID NO:67 expression in steroid-treated C3A cells; type: cell-based, human; conditions: early confluent C3A cells treated for 1, 3, or 6 hours
Experimental: (§1) Total RNA is isolated from tissue samples using the guanidinium thiocyanate method and poly(A)^+ RNA is purified using the oligo-(dT) cellulose method. Each poly(A)^+ RNA sample is reverse transcribed using MMLV reverse-transcriptase, 0.05 pg/μl oligo-(dT) primer (21 mer), 1× first strand buffer, 0.03 units/μl RNase inhibitor, 500 μM dATP, 500 μM dGTP, 500 μM dTTP, 40 μM dCTWP, 40 μM dCTP-Cy3 (BDS) or dCTP-Cy5 (Amersham Biosciences). The reverse transcription reaction is performed in a […] containing 200 ng poly(A)^+ RNA with GEMBRIGHT kits (Incyte Genomics). Specific control poly(A)^+ RNAs are synthesized by in vitro transcription from non-coding yeast genomic DNA. After incubation at 37° C. for 2 hr, each reaction sample (one with Cy3 and another with Cy5 labeling) is treated with […] of 0.5M sodium hydroxide and incubated for 20 minutes at 85° C. to the stop the reaction and degrade the RNA. Samples are purified using two successive CHROMA SPIN 30 gel filtration spin columns (Clontech, Palo Alto Calif.) and after combining, both reaction samples are ethanol precipitated using […] of 100% ethanol. The sample is then dried to completion using a SpeedVAC (Savant Instruments Inc., Holbrook N.Y.) and resuspended in 14 μl 5×SSC/0.2% SDS.
Sequences of the present invention are used to generate array elements. Each array element is amplified from bacterial cells containing vectors with cloned cDNA inserts. PCR amplification uses primers complementary to the vector sequences flanking the cDNA insert. Array elements are amplified in thirty cycles of PCR from an initial quantity of 1-2 ng to a final quantity greater than 5 μg. Amplified array elements are then purified using SEPHACRYL-400 (Amersham Biosciences).
Purified array elements are immobilized on polymer-coated glass slides. Glass microscope slides (Corning) are cleaned by ultrasound in 0.1% SDS and acetone, with extensive distilled water washes between and after treatments. Glass slides are etched in 4% hydrofluoric acid (VWR Scientific Products Corporation (VWR), West Chester Pa.), washed extensively in distilled water, and coated with 0.05% aminopropyl silane (Sigma) in 95% ethanol. Coated slides are cured in a 110° C. oven.
Array elements are applied to the coated glass substrate using a procedure described in U.S. Pat. No. 5,807,522, incorporated herein by reference. 1 μl of the array element DNA, at an average concentration of 100 ng/μl, is loaded into the open capillary printing element by a high-speed robotic apparatus. The apparatus then deposits about 5 nl of array element sample per slide.
Microarrays are UV-crosslinked using a STRATALINKER UV-crosslinker (Stratagene). […]

[2] = relative to progesterone; cited from earlier work
[3] = biological target: CKI-epsilon (Homo sapiens, UniProt P49674); conditions: recombinant expression; cited from earlier work
[4] = tested on: SEQ ID NO:57; assay: Microarray analysis of SEQ ID NO:57 expression in steroid-treated C3A cells; type: cell-based, human; conditions: early confluent C3A cells, 1, 3 and 6 hours (all time points), compared to untreated C3A cells
Experimental: as §1, with “The sample is then dried to completion using a SpeedVAC (Savant Instruments Inc., Holbrook N.Y.) and resuspended in 14 μl 5×SSC/0.2% SDS.” left out
Sequences of the present invention are used to generate array elements. […] Array elements are amplified in thirty cycles of PCR from an initial quantity of 1-2 ng to a final quantity greater than 5 μg. […]

Sequence of CKI-epsilon (P49674 whole entry): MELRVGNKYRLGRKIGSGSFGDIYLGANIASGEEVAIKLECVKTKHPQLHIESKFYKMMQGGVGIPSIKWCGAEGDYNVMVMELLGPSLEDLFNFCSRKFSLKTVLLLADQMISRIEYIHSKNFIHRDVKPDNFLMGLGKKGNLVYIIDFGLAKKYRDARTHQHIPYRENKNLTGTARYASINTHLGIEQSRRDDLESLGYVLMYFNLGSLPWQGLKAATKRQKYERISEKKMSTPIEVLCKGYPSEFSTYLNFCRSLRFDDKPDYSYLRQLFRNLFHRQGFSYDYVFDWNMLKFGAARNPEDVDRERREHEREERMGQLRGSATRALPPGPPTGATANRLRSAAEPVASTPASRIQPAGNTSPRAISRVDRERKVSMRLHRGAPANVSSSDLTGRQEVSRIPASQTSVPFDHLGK

For “6α-methyl-17-hydroxyprogesterone [medroxyprogesterone]”, the “expression of SEQ ID NO:67” value [1] is listed as “at least a two-fold decrease” and the “pharmacological activity greater than progesterone” value [2] is listed as “about 15 times”.
In the case of NCCNS(=O)(=O)c1ccc(Cl)c2ccncc12 [CKI-7], the “inhibition of CKI-epsilon” value [3] is listed as “inhibited”.
For C[C@H]1C[C@H]2[C@@H]3CCC4=CC(=O)C=C[C@]4(C)[C@@]3(Cl)[C@@H](O)C[C@]2(C)[C@@]1(O)C(=O)CO [beclomethasone], the “expression of SEQ ID NO:67” value [1] was “at least a two-fold decrease” and the “expression of SEQ ID NO:57” value ([4]; beclamethasone at 10 μM) was “increased by at least two-fold”.
For C[C@]12C=CC(=O)C=C1CC[C@@H]1[C@@H]2C(=O)C[C@@]2(C)[C@H]1CC[C@]2(O)C(=O)CO [prednisone], the “expression of SEQ ID NO:67” value [1] was “at least a two-fold decrease”.
With CC(=O)[C@H]1CC[C@H]2[C@@H]3CCC4=CC(=O)CC[C@]4(C)[C@H]3CC[C@]12C [progesterone] the “expression of SEQ ID NO:67” value [1] was “at least a two-fold decrease” and the “expression of SEQ ID NO:57” value ([4]; progesterone at 100 μM) was “increased by at least two-fold”.

Source: patent publication US20050186568A1, “Kinases and phosphatases” (priority 2001, published 2005)
